Measured values reported in ChEMBL document CHEMBL3045762, “Studies on arylfuran derivatives. Part XI. Synthesis, characterisation and biological studies on some Mannich bases carrying 2,4-dichlorophenylfurfural moiety” (2000).
Active and inactive are the calls of the source. The calls are words filed in the database; no cut-off is given here.

What was measured:
Parthenium hysterophorus [1] = test: Post-emergence herbicidal activity against Parthenium hysterophorus assessed as reduction of seed germination at 1000 ppm after 5 to 25 days by pot test; assay type: functional, organism-based
Cynodon dactylon [2] = test: Post-emergence herbicidal activity against Cynodon dactylon assessed as reduction of seed germination at 1000 ppm after 5 to 25 days by pot test; assay type: functional, organism-based
Euphorbia hirta [3] = test: Post-emergence herbicidal activity against Euphorbia hirta assessed as reduction of seed germination at 1000 ppm after 5 to 25 days by pot test; assay type: functional, organism-based
Alternaria solani = test: Antifungal activity against Alternaria solani assessed as fungal growth (reference value: 52 mm); assay type: functional
Digitaria sanguinalis [4] = test: Pre-emergence herbicidal activity against Digitaria sanguinalis (hairy crabgrass) assessed as reduction of seed germination at 1000 ppm after 7 to 21 days by pot test; assay type: functional, organism-based
Digitaria sanguinalis [5] = test: Post-emergence herbicidal activity against Digitaria sanguinalis (hairy crabgrass) assessed as reduction of seed germination at 1000 ppm after 5 to 25 days by pot test; assay type: functional, organism-based
Plasmopara viticola = test: Antifungal activity against Plasmopara viticola assessed as infection (reference value: 100%); assay type: functional
Amaranthus viridis [6] = test: Pre-emergence herbicidal activity against Amaranthus viridis assessed as reduction of seed germination at 1000 ppm after 7 to 21 days by pot test; assay type: functional, organism-based
Amaranthus viridis [7] = test: Post-emergence herbicidal activity against Amaranthus viridis assessed as reduction of seed germination at 1000 ppm after 5 to 25 days by pot test; assay type: functional, organism-based
Fusarium sp. = test: Antifungal activity against Fusarium sp. assessed as fungal growth (reference value: 77 mm); assay type: functional
Digitaria sanguinalis [8] = test: Pre-emergence herbicidal activity against Digitaria sanguinalis (hairy crabgrass) assessed as reduction of seed germination at 1 ppm after 7 to 21 days by pot test; assay type: functional, organism-based
Amaranthus viridis [9] = test: Pre-emergence herbicidal activity against Amaranthus viridis assessed as reduction of seed germination at 1 ppm after 7 to 21 days by pot test; assay type: functional, organism-based
Amaranthus viridis [10] = test: Pre-emergence herbicidal activity against Amaranthus viridis assessed as reduction of seed germination at 1.50 ppm after 7 to 21 days by pot test; assay type: functional, organism-based
Digitaria sanguinalis [11] = test: Pre-emergence herbicidal activity against Digitaria sanguinalis (hairy crabgrass) assessed as reduction of seed germination at 1.50 ppm after 7 to 21 days by pot test; assay type: functional, organism-based
Amaranthus viridis [12] = test: Post-emergence herbicidal activity against Amaranthus viridis assessed as reduction of seed germination at 1.22 ppm after 5 to 25 days by pot test; assay type: functional, organism-based
Euphorbia hirta [13] = test: Post-emergence herbicidal activity against Euphorbia hirta assessed as reduction of seed germination at 1.22 ppm after 5 to 25 days by pot test; assay type: functional, organism-based
Parthenium hysterophorus [14] = test: Post-emergence herbicidal activity against Parthenium hysterophorus assessed as reduction of seed germination at 1.22 ppm after 5 to 25 days by pot test; assay type: functional, organism-based
Digitaria sanguinalis [15] = test: Post-emergence herbicidal activity against Digitaria sanguinalis (hairy crabgrass) assessed as reduction of seed germination at 1.22 ppm after 5 to 25 days by pot test; assay type: functional, organism-based
Cynodon dactylon [16] = test: Post-emergence herbicidal activity against Cynodon dactylon assessed as reduction of seed germination at 1.22 ppm after 5 to 25 days by pot test; assay type: functional, organism-based
Cynodon dactylon [17] = test: Post-emergence herbicidal activity against Cynodon dactylon assessed as reduction of seed germination at 0.48 ppm after 5 to 25 days by pot test; assay type: functional, organism-based
Digitaria sanguinalis [18] = test: Post-emergence herbicidal activity against Digitaria sanguinalis (hairy crabgrass) assessed as reduction of seed germination at 0.48 ppm after 5 to 25 days by pot test; assay type: functional, organism-based
Parthenium hysterophorus [19] = test: Post-emergence herbicidal activity against Parthenium hysterophorus assessed as reduction of seed germination at 0.48 ppm after 5 to 25 days by pot test; assay type: functional, organism-based
Euphorbia hirta [20] = test: Post-emergence herbicidal activity against Euphorbia hirta assessed as reduction of seed germination at 0.48 ppm after 5 to 25 days by pot test; assay type: functional, organism-based
Amaranthus viridis [21] = test: Post-emergence herbicidal activity against Amaranthus viridis assessed as reduction of seed germination at 0.48 ppm after 5 to 25 days by pot test; assay type: functional, organism-based

Row | Structure (SMILES) | Activity (Parthenium hysterophorus [1]) | Activity (Cynodon dactylon [2]) | Activity (Euphorbia hirta [3]) | Activity (Alternaria solani) [mm] | Activity (Digitaria sanguinalis [4]) | Activity (Digitaria sanguinalis [5]) | Activity (Plasmopara viticola) [%] | Activity (Amaranthus viridis [6]) | Activity (Amaranthus viridis [7]) | Activity (Fusarium sp.) [mm] | also measured
1 | Cc1cc(OCc2nn(CNc3ccc(F)c(Cl)c3)c(=S)n2/N=C/c2ccc(-c3ccc(Cl)cc3Cl)o2)ccc1Cl | inactive | inactive | inactive | 49 | inactive | inactive | 100 | inactive | inactive | 72 | 
2 | CCCCC(O)(Cn1cncn1)c1ccc(Cl)cc1Cl (stereo not given) [HEXACONAZOLE] |  |  |  |  |  |  |  |  |  | 8 | 
3 | CCC(CC)Nc1c([N+](=O)[O-])cc(C)c(C)c1[N+](=O)[O-] |  |  |  |  |  |  |  |  |  |  | Activity (Digitaria sanguinalis [8]): Active; Activity (Amaranthus viridis [9]): Active
4 | CCNc1nc(Cl)nc(NC(C)C)n1 |  |  |  |  |  |  |  |  |  |  | Activity (Amaranthus viridis [10]): Active; Activity (Digitaria sanguinalis [11]): Active
5 | Cc1cc(OCc2n[nH]c(=S)n2/N=C/c2ccc(-c3ccc(Cl)cc3Cl)o2)ccc1Cl | inactive | inactive | inactive | 56 | inactive | inactive | 100 | inactive | inactive | 76 | 
6 | Fc1ccc(NCn2nc(COc3ccccc3Cl)n(/N=C/c3ccc(-c4ccc(Cl)cc4Cl)o3)c2=S)cc1Cl | inactive | inactive | inactive | 57 | inactive | inactive | 100 | inactive | inactive | 75 | 
7 | S=c1[nH]nc(COc2ccc(Cl)cc2)n1/N=C/c1ccc(-c2ccc(Cl)cc2Cl)o1 | inactive | inactive | inactive | 60 | inactive | inactive | 100 | inactive | inactive | 79 | 
8 | S=c1[nH]nc(COc2ccc(Cl)cc2Cl)n1/N=C/c1ccc(-c2ccc(Cl)cc2Cl)o1 | inactive | inactive | inactive | 58 | inactive | inactive | 100 | inactive | inactive | 80 | 
9 | Fc1ccc(NCn2nc(COc3ccc(Cl)cc3Cl)n(/N=C/c3ccc(-c4ccc(Cl)cc4Cl)o3)c2=S)cc1Cl | inactive | inactive | inactive | 51 | inactive | inactive | 100 | inactive | inactive | 73 | 
10 | O=C(O)CNCP(=O)(O)O |  |  |  |  |  |  |  |  |  |  | Activity (Amaranthus viridis [12]): Active; Activity (Euphorbia hirta [13]): Active; Activity (Parthenium hysterophorus [14]): Active; Activity (Digitaria sanguinalis [15]): Active; Activity (Cynodon dactylon [16]): Active
11 | C[n+]1ccc(-c2cc[n+](C)cc2)cc1 |  |  |  |  |  |  |  |  |  |  | Activity (Cynodon dactylon [17]): Active; Activity (Digitaria sanguinalis [18]): Active; Activity (Parthenium hysterophorus [19]): Active; Activity (Euphorbia hirta [20]): Active; Activity (Amaranthus viridis [21]): Active
12 | S=c1[nH]nc(COc2ccccc2Cl)n1/N=C/c1ccc(-c2ccc(Cl)cc2Cl)o1 | inactive | inactive | inactive | 66 | inactive | inactive | 100 | inactive | inactive | 77.5 | 
13 | Fc1ccc(NCn2nc(COc3ccc(Cl)cc3)n(/N=C/c3ccc(-c4ccc(Cl)cc4Cl)o3)c2=S)cc1Cl | inactive | inactive | inactive | 52 | inactive | inactive | 100 | inactive | inactive | 75 | 
